What all share (assay type): functional, Homo sapiens
The subject of assay [1] is H9. As to the kind of experiment: (§1) Compound was tested for the inhibiting acute infection of H9 cells over 7 days at 50 mM.
Assay [2] deals with H9. As to the kind of experiment: Compound was tested for the inhibiting acute infection of H9 cells over 7 days at 1 mM.
The subject of assay [3] is H9. As to the kind of experiment: Compound was tested for the cytotoxicity in H-9 cells infected with HIV-IIIB over 14 days.
Assay [4] deals with H9. Briefly: Compound was tested for the cytotoxicity in H-9 cells infected with HIV-IIIB over 7 days.
For assay [5], the system named is H9. Briefly: Compound was tested for the inhibiting acute infection of H9 cells over 14 days 1 mM.
In assay [6] the test system is H9. Briefly: Compound was tested for the effective inhibiting acute infection of H9 cells over 7 days at 50 mM.
Assay [7] deals with H9. Briefly: Compound was Tested for the inhibiting acute infection of H9 cells over 7 days at 1 mM.
Assay [8] deals with H9. Briefly: Compound was tested for the effective inhibiting acute infection of H9 cells over 7 days at 100 mM.
The subject of assay [9] is H9. Described as §1. The source holds these as a separate data set.
Assay [10] relates to H9. As to the kind of experiment: Compound was tested for the cytotoxicity in H-9 cells infected with HIV-IIIB over 9 days.

Where “and” joins values, the source holds several entries; their conditions need not be identical. Identical values can stand only once.

Regarding `CCCCCCOc1ncnc2c1ncn2[C@H]1C[C@H](CO)[C@@H](CO)O1`, the P24 concentration is 1 ng/mL and 3 ng/mL in the assay on H9 [1]; 2 ng/mL in the assay with H9 [2]; 80 ng/mL with H9 [3]; 1 ng/mL in the assay with H9 [4]; 90 ng/mL with H9 [5].
Regarding `COc1ncnc2c1ncn2[C@H]1C[C@H](CO)[C@@H](CO)O1`, the P24 concentration in the assay on H9 [2] turned out to be 80 ng/mL; in the assay with H9 [3], 6 ng/mL; in the assay with H9 [4], 12 ng/mL.
With `Nc1ncnc2c1ncn2[C@@H]1C[C@H](CO)[C@@H](CO)O1`, the P24 concentration amounted to 80 ng/mL in the assay on H9 [3] and 10 ng/mL in the assay with H9 [4].
For `OC[C@H]1C[C@H](n2cnc3cncnc32)O[C@@H]1CO` the same measures were 80 ng/mL and 8 ng/mL.
Turning to `OC[C@H]1C[C@@H](n2cnc3c(Cl)ncnc32)O[C@@H]1CO`, the P24 concentration amounted to 80 ng/mL in the assay with H9 [3] and 2 ng/mL in the assay on H9 [4].
As for `COc1ncnc2c1ncn2[C@@H]1C[C@H](CO)[C@@H](CO)O1`, the P24 concentration with H9 [3] amounted to 80 ng/mL; with H9 [4] it was 5 ng/mL.
On to `Nc1ncnc2c1ncn2[C@H]1C[C@H](CO)[C@@H](CO)O1`, for which the P24 concentration in the assay with H9 [6] is 100 ng/mL; in the assay with H9 [7], 6 ng/mL; in the assay on H9 [1], 0.5 ng/mL and 1 ng/mL; in the assay on H9 [3] it was 2 ng/mL; with H9 [4] it was 0.5 ng/mL; in the assay on H9 [5], 90 ng/mL. In the assay on H9 [8], this molecule yielded a P24 concentration of 0.1 ng/mL.
Take `OC[C@H]1C[C@@H](n2cnc3cncnc32)O[C@@H]1CO`: the P24 concentration came to 90 ng/mL with H9 [1]; 6 ng/mL in the assay with H9 [2]; 14 ng/mL in the assay with H9 [9]; 80 ng/mL with H9 [3]; 12 ng/mL with H9 [4]; 90 ng/mL in the assay on H9 [5].
`CCCCCCOc1ncnc2c1ncn2[C@@H]1C[C@H](CO)[C@@H](CO)O1`: the P24 concentration in the assay on H9 [3] is 80 ng/mL; with H9 [4] it was 4 ng/mL.
For `OC[C@H]1C[C@H](n2cnc3c(Cl)ncnc32)O[C@@H]1CO` the same measures were 80 ng/mL and 2 ng/mL.
In the case of `Cc1cn([C@H]2C[C@H](N=[N+]=[N-])[C@@H](CO)O2)c(=O)[nH]c1=O` [ZIDOVUDINE], the P24 concentration in the assay with H9 [10] came to 600 ng/mL; in the assay on H9 [4] it was 100 ng/mL.

The record behind these values is ChEMBL document CHEMBL1129467, “Synthesis and HIV inhibition activity of 2',3'-dideoxy-3'-C-hydroxymethyl nucleosides” (1996).
